Data as given in patent publication US9428448B2, “Compounds and methods of treating obesity” (Yissum Research Development Company of the Hebrew …, priority 2008, dated 2016).

How the values were obtained:
[1] = system: Serotonin (5-HT) levels in the hypothalamus; test: serotonin (5-HT) levels in the hypothalamus (HPLC-ECD); format: in vivo, mice; settings: treated group vs. control, 1 mg/kg i.p., p<0.05 (FIG. 6)
Method: (§1) Mice were decapitated and their brains rapidly removed, and the hypothalamus and hippocampus were dissected. 2-AG levels in the hypothalamus were evaluated using TLC followed by GC-MS analysis.
(§2) Serotonin (5-HT) and norepinephrine (NE) were valuated in the hypothalamus (serotonin and norepinephrine) and hippocampus (norepinephrine), using HPLC-ECD.

[2] = neurological score by the NSS method; format: in vivo, Sabra mice; settings: 1 mg/kg i.p., day 10 (FIG. 11, Example 3)
Method: (§3) This study compared the effects of Compound X and Rimonabant. Female Sabra mice (32 g average weight) were divided randomly to 3 experimental groups: (a) control; (b) Compound X; and (3) Rimonabant, 10 mice in each group. Food consumption and weight were evaluated during the experiment. During the second week, mice were evaluated for cognitive function during 5 days using the eight arm maze. 15 min before evaluation mice were injected i.p. with either saline or 1 mg/kg Compound X or Rimonabant (days 8-12).
Neurological score was evaluated by the NSS method Neurological function was assessed by a 10 point scale based on reflexes and task performance 37: Exit from a circle 1 meter in diameter in less than 1 minute, seeking, walking a straight line, startle reflex, grasping reflex, righting reflex, placing reflex, corneal reflex, maintaining balance on a beam 3, 2 and 1 cm in width, climbing onto a square and a round pole. For each task failed or abnormal reflex reaction a score of 1 was assigned. Thus, a higher score indicates poorer neurological function on day 10.

[3] = total food consumption in mice; format: in vivo, Sabra mice; settings: 1 mg/kg i.p.; for effect on total food consumption in the second week (comparison study): second week during administration, vs control (FIG. 9B, Example 3)
Method: (§4) Young female Sabra mice were assigned at random to different groups (untreated controls or treated with 1 mg/kg Compound X Intra Peritoneally) of 10 mice per cage. The weights of the animals were similar at the beginning of the experiment. All cages contained wood-chip bedding and were placed in a temperature-controlled room at 22° C., on a 12-h light/dark cycle (lights on at 07.00 h). The mice had free access to water 24 h a day. The mice were fed ad-libitum, body weight was measured twice a week during the experiment and food consumption was calculated.
Total food consumption was evaluated in the first week before treatment and at the second week during the treatment (FIGS. 2A and 2B).
as §3
Total food consumption was evaluated in the first week before treatment and at the second week during the treatment (FIGS. 9A and 9B, respectively).

[4] = system: 2-AG levels in the hypothalamus; test: 2-AG levels in the hypothalamus (TLC followed by GC-MS); format: in vivo, mice; settings: treated group vs. control, 1 mg/kg i.p., p<0.05 (FIG. 5)
Method: as §1

[5] = system: norepinephrine (NE) levels; test: norepinephrine (NE) levels in hippocampus and hypothalamus (HPLC-ECD); format: in vivo, mice; settings: 1 mg/kg i.p.
Method: as §1, §2

[6] = locomotor activity in an open field (activity index); format: in vivo, Sabra mice; settings: 1 mg/kg i.p.; for effect on activity (mean number of crossings per minute; comparison study): open field (FIG. 10, Example 3)
Method: Activity of the mice was assessed in an open field (20×30 cm) divided into 12 squares of equal size. Two mice were observed simultaneously for 5 minutes. The activity test was performed on day 11 of the experiment. Locomotor activity was recorded by counting the number of crossings by the mice at one minute intervals. The results, depicted in FIG. 4, are presented as the mean number of crossings per minute.
Activity of the mice was assessed in an open field (20×30 cm) divided into 12 squares of equal size, as detailed in Example 2. The results, depicted in FIG. 10, are presented as the mean number of crossings per minute.

ALT levels = ALT levels in mice; format: in vivo, Sabra mice; settings: 1 mg/kg i.p., mice sacrificed 71 days after treatment (FIG. 13, Example 3)
Method: as §3
Mice were sacrificed 71 days after treatment, and ALT levels were measured.

[7] = body weight of mice during treatment; format: in vivo, Sabra mice; settings: for effect on weight vs control (comparison study): 1 mg/kg i.p. days 8-12, female Sabra mice (FIG. 8, Example 3)
Method: as §4
Compound X may also be given orally. Compound X (gavage) or saline (control) were administered to Sabra mice by oral gavage.
as §3

[8] = cognitive function evaluated by an 8 arm maze; format: in vivo, Sabra mice; settings: for effect on cognitive function (8 arm maze; comparison study): 1 mg/kg, second week of treatment (FIG. 12, Example 3)
Method: Mice were subjected to the treatment regimen outlined in Example 1, and during the second week of treatment their cognitive function was evaluated by an 8 arm maze on the second week of the experiment 15 minutes after injection. Two hours before the test, the mice were on a water deprivation schedule. At the end of each arm there was a drop of water as a reward. Each mouse was evaluated for its performance in the maze. The mice were observed until they made entries to all eight arms or until they completed 24 entries (whichever came first). The results, depicted in FIG. 3, were calculated as AUC (area under the curve) as follows: day2+day3+day4+day5−4(day1).
as §3
Mice were subjected to treatment with Compound X (1 mg/kg) or Rimonabant (1 mg/kg), and during the second week of treatment their cognitive function was evaluated by an 8 arm maze as described above in Example 2.

PPAR-α = target: T1, PPAR-α (Homo sapiens, UniProt Q07869); settings: reported by Giuseppe et al. 2006; read-out: EC50 for stimulating transcriptional activity of PPAR-α; cited from earlier work
T1 sequence (Q07869 1-468): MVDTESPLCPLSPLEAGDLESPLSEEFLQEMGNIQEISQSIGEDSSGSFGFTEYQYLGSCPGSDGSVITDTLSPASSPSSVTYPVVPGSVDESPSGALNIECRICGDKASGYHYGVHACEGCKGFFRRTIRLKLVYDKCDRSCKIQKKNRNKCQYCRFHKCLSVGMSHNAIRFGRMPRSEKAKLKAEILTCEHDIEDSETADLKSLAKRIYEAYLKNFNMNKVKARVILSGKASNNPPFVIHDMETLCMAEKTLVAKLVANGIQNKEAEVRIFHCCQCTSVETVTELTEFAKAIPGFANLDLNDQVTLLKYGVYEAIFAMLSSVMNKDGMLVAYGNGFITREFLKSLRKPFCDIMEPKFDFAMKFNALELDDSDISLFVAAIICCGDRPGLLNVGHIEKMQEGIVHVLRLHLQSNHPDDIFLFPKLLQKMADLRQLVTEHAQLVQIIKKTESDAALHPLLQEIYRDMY

In the case of `CCCCCCCC/C=C\CCCCCCCC(=O)N[C@H](CO)C(C)C` [Compound X, ((Z-Octadec)-9-enoic acid 1-hydroxymethyl-2-methyl-propyl)-amide], the “effect on serotonin levels in the hypothalamus” value [1] is reported as “increased significantly”, the “effect on neurological score (NSS, 10 point scale; higher score = poorer function)” value [2] is reported as “did not change the neurological score” and the “decrease in food consumption” value ([3]; p<0.05 (Examples 1-2 conclusion)) is reported as 7%. The “effect on total food consumption in the second week (comparison study)” value [3] was “decreased food consumption significantly”, the “effect on total food consumption in the second week” value ([3]; second week during treatment, P<0.05 (FIG. 2B, Example 1)) was “significantly decreased food consumption” and the “effect on 2-AG levels in the hypothalamus” value [4] was “significant decrease”. For the same molecule, the “effect on NE levels in the hippocampus” value ([5]; p<0.05 (FIG. 7A)) was “significantly increased”, the “effect on NE levels in the hypothalamus” value ([5]; p<0.05 (FIG. 7B)) was “significantly increased” and the “effect on activity (mean number of crossings per minute)” value ([6]; day 11, open field, p<0.001 (FIG. 4, Example 2)) was “significant increase in the activity”. For the same molecule, the “effect on activity (mean number of crossings per minute; comparison study)” value [6] was “significant increase in the activity”, the increased activity ([6]; p<0.001 (Examples 1-2 conclusion)) was 36% and the “effect on ALT levels” value (ALT levels) was “slightly increased ALT levels”. For the same molecule, the “duration of the decrease in weight after administration” value ([7]; 1 mg/kg Intra Peritoneally, female Sabra mice (Example 1)) was “about 15 days”, the “effect on weight vs control (comparison study)” value [7] was “significant decrease in weight” and the “continuation of the weight effect after re-administration on day 43” value ([7]; administered again on day 43, female Sabra mice (Example 3)) was 28 days. The “continuation of the weight effect without further administration” value ([7]; after 1 mg/kg i.p. days 8-12, female Sabra mice (Example 3)) was 31 days, the “effect on body weight, oral gavage” value ([7]; oral gavage vs saline control, Sabra mice (FIG. 1B)) was “significantly decreasing the weight” and the “improvement in cognitive function (8 arm maze)” value ([8]; 1 mg/kg i.p. (Examples 1-2 conclusion)) was 400%. For the same molecule, the “effect on cognitive function (8 arm maze, AUC)” value ([8]; 1 mg/kg i.p., second week, 15 minutes after injection (FIG. 3, Example 2)) was “improved significantly” and the “effect on cognitive function (8 arm maze; comparison study)” value [8] was “improved significantly”.

For `CCCCCCCC/C=C\CCCCCCCC(=O)N[C@H](C)CO` [KDS-5104, (Z)—(R)-9-octadecenamide, N-2(hydroxyethyl,1-methyl)], the EC50 (PPAR-α) is given as 100 nM.

With `Cc1c(C(=O)NN2CCCCC2)nn(-c2ccc(Cl)cc2Cl)c1-c1ccc(Cl)cc1` [Rimonabant, reference compound] the “effect on neurological score (NSS, 10 point scale; higher score = poorer function)” value [2] was “tendency to increase it”, the “effect on total food consumption in the second week (comparison study)” value [3] was “no significant differences” and the “effect on activity (mean number of crossings per minute; comparison study)” value [6] was “significantly decreased activity”. The “effect on ALT levels” value (ALT levels) was “raised them significantly”, the “effect on weight vs control (comparison study)” value [7] was “no significant difference in weight loss” and the “effect on cognitive function (8 arm maze; comparison study)” value [8] was “did not significantly affect cognitive function”.
